Measured values taken from ChEMBL document CHEMBL4431352, “Structure-activity relationship of Garcinia xanthones analogues: Potent Hsp90 inhibitors with cytotoxicity and antiangiogenesis activity” (Bioorg Med Chem, 2016).
Values belong to the compound of their own block, whether it stands above or below them. Calls of active or inactive are those of the source. The rule behind the calls is not given here.

Key:
[1] = biological target: T1, Heat shock protein HSP 90-alpha (Homo sapiens, UniProt P07900); assay: Inhibition of 6x-His tagged human recombinant full length Hsp90alpha ATPase preincubated for 0.5 hrs followed by ATP addition measured after 30 mins by HTRF assay
[2] = system: HepG2; assay: Antiproliferative activity against human HepG2 cells assessed as growth inhibition by MTT assay; type: functional, cell-based
[3] = system: MCF7; assay: Antiproliferative activity against human MCF7 cells assessed as growth inhibition by MTT assay; type: functional, cell-based
[4] = system: SK-BR-3; assay: Antiproliferative activity against human SK-BR-3 cells assessed as growth inhibition by MTT assay; type: functional, cell-based
[5] = system: A549; assay: Antiproliferative activity against human A549 cells assessed as growth inhibition by MTT assay; type: functional, cell-based
[6] = system: HT-29; assay: Antiproliferative activity against human HT-29 cells assessed as growth inhibition by MTT assay; type: functional, cell-based
[7] = system: PC-3; assay: Antiproliferative activity against human PC3 cells assessed as growth inhibition by MTT assay; type: functional, cell-based
[8] = biological target: T2, Heat shock protein HSP90 (Homo sapiens) (UniProt P07900+P08238); assay: Inhibition of Hsp90 in HUVEC assessed as repression of 1% hypoxia-induced […] mRNA expression at 0.1 uM measured over 8 hrs by RT-PCR analysis; type: cell-based
[9] = biological target: T2, Heat shock protein HSP90 (Homo sapiens); assay: Inhibition of Hsp90 in human SK-BR-3 cells assessed as upregulation of Hsp70 at 0.02 to 0.2 uM after 24 hrs by Western blot analysis; type: cell-based
[10] = biological target: T2, Heat shock protein HSP90 (Homo sapiens); assay: Inhibition of Hsp90 in HUVEC assessed as repression of 1% hypoxia-induced VEGF mRNA expression at 0.1 uM measured over 8 hrs by RT-PCR analysis; type: cell-based
[11] = system: SK-BR-3; assay: Induction of apoptosis in human SK-BR-3 cells assessed as early apoptotic cells at 0.25 uM after 48 hrs by annexin v/PI-staining based flow cytometry (reference value: 3.3%); type: functional
[12] = biological target: T2, Heat shock protein HSP90 (Homo sapiens); assay: Inhibition of Hsp90 in HUVEC assessed as repression of 1% hypoxia-induced Glut1 mRNA expression at 0.1 uM measured over 8 hrs by RT-PCR analysis; type: cell-based
[13] = system: SK-BR-3; assay: Induction of apoptosis in human SK-BR-3 cells assessed as live cells at 1 uM after 48 hrs by annexin v/PI-staining based flow cytometry (reference value: 89.2%); type: functional
[14] = system: HUVEC; assay: Antiangiogenic activity against inactivated HUVEC assessed as inhibition of tube formation at 0.25 uM incubated for 6 hrs by matrigel assay; type: functional, cell-based; conditions: Homo sapiens
[15] = biological target: T2, Heat shock protein HSP90 (Homo sapiens); assay: Inhibition of Hsp90 in human SK-BR-3 cells assessed as downregulation of ERK1/2 after 24 hrs by Western blot analysis; type: cell-based
[16] = system: SK-BR-3; assay: Induction of apoptosis in human SK-BR-3 cells assessed as late apoptotic cells at 1 uM after 48 hrs by annexin v/PI-staining based flow cytometry (reference value: 6.2%); type: functional
[17] = system: SK-BR-3; assay: Induction of cell morphological changes in human SK-BR-3 cells assessed as cell membrane blebbing at 0.25 to 1 uM after 48 hrs by DAPI staining-based fluorescence analysis; type: functional
[18] = system: SK-BR-3; assay: Induction of apoptosis in human SK-BR-3 cells assessed as live cells after 48 hrs by annexin v/PI-staining based flow cytometry (reference value: 89.2%); type: functional, cell-based
[19] = system: SK-BR-3; assay: Induction of apoptosis in human SK-BR-3 cells assessed as early apoptotic cells after 48 hrs by annexin v/PI-staining based flow cytometry (reference value: 3.3%); type: functional, cell-based
[20] = system: SK-BR-3; assay: Induction of apoptosis in human SK-BR-3 cells assessed as apoptotic body formation at 0.25 to 1 uM after 48 hrs by DAPI staining-based fluorescence analysis; type: functional, cell-based
[21] = system: SK-BR-3; assay: Induction of apoptosis in human SK-BR-3 cells assessed as late apoptotic cells at 0.25 uM after 48 hrs by annexin v/PI-staining based flow cytometry (reference value: 6.2%); type: functional
[22] = system: HUVEC; assay: Antiangiogenic activity against HUVEC assessed as inhibition of VEGF-induced cell migration incubated for 24 hrs by wound healing assay; type: functional, cell-based; conditions: Homo sapiens
[23] = system: SK-BR-3; assay: Induction of cell morphological changes in human SK-BR-3 cells assessed as cell distortion at 0.25 to 1 uM after 48 hrs by DAPI staining-based fluorescence analysis; type: functional
[24] = system: SK-BR-3; assay: Induction of apoptosis in human SK-BR-3 cells assessed as dead cells after 48 hrs by annexin v/PI-staining based flow cytometry (Rvb =1.3%); type: functional, cell-based
[25] = system: SK-BR-3; assay: Induction of apoptosis in human SK-BR-3 cells after 48 hrs by annexin V/PI-staining based flow cytometry; type: functional, cell-based
[26] = system: SK-BR-3; assay: Induction of apoptosis in human SK-BR-3 cells assessed as early apoptotic cells at 1 uM after 48 hrs by annexin v/PI-staining based flow cytometry (reference value: 3.3%); type: functional
[27] = biological target: T1, Heat shock protein HSP 90-alpha; assay: Binding affinity to human recombinant full length Hsp90alpha assessed as change in melting temperature at 125 uM by fluorescence assay
[28] = system: SK-BR-3; assay: Induction of apoptosis in human SK-BR-3 cells assessed as live cells at 0.5 uM after 48 hrs by annexin v/PI-staining based flow cytometry (reference value: 89.2%); type: functional
[29] = biological target: T1, Heat shock protein HSP 90-alpha; assay: Binding affinity to human recombinant full length Hsp90alpha assessed as change in melting temperature at 1 mM by fluorescence assay
[30] = system: SK-BR-3; assay: Induction of apoptosis in human SK-BR-3 cells assessed as dead cells at 0.25 uM after 48 hrs by annexin v/PI-staining based flow cytometry (Rvb =1.3%); type: functional
[31] = system: SK-BR-3; assay: Induction of apoptosis in human SK-BR-3 cells assessed as late apoptotic cells after 48 hrs by annexin v/PI-staining based flow cytometry (reference value: 6.2%); type: functional, cell-based
[32] = system: SK-BR-3; assay: Induction of apoptosis in human SK-BR-3 cells assessed as nuclear condensation at 0.25 to 1 uM after 48 hrs by DAPI staining-based fluorescence analysis; type: functional, cell-based
[33] = system: SK-BR-3; assay: Induction of apoptosis in human SK-BR-3 cells assessed as late apoptotic cells at 0.5 uM after 48 hrs by annexin v/PI-staining based flow cytometry (reference value: 6.2%); type: functional
[34] = system: SK-BR-3; assay: Induction of apoptosis in human SK-BR-3 cells assessed as early apoptotic cells at 0.5 uM after 48 hrs by annexin v/PI-staining based flow cytometry (reference value: 3.3%); type: functional
[35] = system: SK-BR-3; assay: Induction of apoptosis in human SK-BR-3 cells assessed as dead cells at 1 uM after 48 hrs by annexin v/PI-staining based flow cytometry (Rvb =1.3%); type: functional
[36] = system: SK-BR-3; assay: Induction of cell morphological changes in human SK-BR-3 cells assessed as cell shrinkage at 0.25 to 1 uM after 48 hrs by DAPI staining-based fluorescence analysis; type: functional
[37] = biological target: T2, Heat shock protein HSP90 (Homo sapiens); assay: Inhibition of Hsp90 in HUVEC assessed as downregulation of 1% hypoxia-induced HIF-1alpha expression measured over 8 hrs by Western blot analysis; type: cell-based
[38] = biological target: T1, Heat shock protein HSP 90-alpha; assay: Binding affinity to human recombinant full length Hsp90alpha assessed as change in melting temperature at 250 uM by fluorescence assay
[39] = system: SK-BR-3; assay: Induction of apoptosis in human SK-BR-3 cells assessed as live cells at 0.25 uM after 48 hrs by annexin v/PI-staining based flow cytometry (reference value: 89.2%); type: functional
[40] = biological target: T1, Heat shock protein HSP 90-alpha; assay: Binding affinity to human recombinant full length Hsp90alpha assessed as change in melting temperature at 500 uM by fluorescence assay
[41] = biological target: T1, Heat shock protein HSP 90-alpha; assay: Binding affinity to human recombinant full length biotinylated Hsp90alpha assessed as equilibrium dissociation constants by biolayer interferometric analysis
[42] = system: SK-BR-3; assay: Induction of apoptosis in human SK-BR-3 cells assessed as increase in caspase activity after 48 hrs by fluorimetric assay; type: functional, cell-based
[43] = biological target: T2, Heat shock protein HSP90 (Homo sapiens); assay: Inhibition of Hsp90 in human SK-BR-3 cells assessed as downregulation of Akt after 24 hrs by Western blot analysis; type: cell-based
[44] = system: SK-BR-3; assay: Induction of apoptosis in human SK-BR-3 cells assessed as dead cells at 0.5 uM after 48 hrs by annexin v/PI-staining based flow cytometry (Rvb =1.3%); type: functional

Compound: CC(C)=CCC12OC(C)(C)C3CC(C=C4C(=O)c5c(O)cc(O)cc5OC431)C2=O (stereo not given)
IC50 [1]: 22.4 µM

Compound: C/C(=C\CC12OC(C)(C)C3CC(C=C4C(=O)c5c(O)cccc5OC431)C2=O)CC=O (stereo not given)
IC50 [1]: 22.6 µM

Compound: C/C(=C\CC12OCC3CC(C1=O)C1OC14C(=O)c1c(O)cccc1OC324)CC(=O)O (stereo not given)
IC50 [1]: 43 µM

Compound: CC(=O)Oc1cccc2c1C(=O)C1=CC3CC4COC(CC=C(C)C)(C3=O)C14O2 (stereo not given)
IC50 [1]: 52.7 µM

Compound: C/C(=C\CC12OC(C)(C)C3CC(C=C4C(=O)c5c(O)cccc5OC431)C2=O)CO (stereo not given)
IC50 [1]: 27.3 µM

Compound: CC(C)=CCC[C@]1(C)C=Cc2c(O)c3c(c(CC=C(C)C)c2O1)O[C@]12C(=C[C@@H]4C[C@H]1C(C)(C)O[C@@]2(C/C=C(/C)C(=O)O)C4=O)C3=O [GAMBOGIC ACID]
IC50 [1]: 22 µM
IC50 [2]: 2.19 µM
IC50 [3]: 1.25 µM
IC50 [4]: 0.89 µM
IC50 [5]: 1.2 µM
IC50 [6]: 2.37 µM
IC50 [7]: 1.19 µM

Compound: C/C(=C\CC12OCC3CC(C=C4C(=O)c5c(O)cccc5OC431)C2=O)CO (stereo not given)
inhibition [8]: Active
inhibition [9]: inactive
IC50 [1]: 3.68 µM
inhibition [10]: Active
Activity [11]: 7.5%
inhibition [12]: Active
Activity [13]: 50%
inhibition [14]: Active
inhibition [15]: Dose-dependent effect
Activity [16]: 35.7%
Activity [17]: Active
Activity [18]: Dose-dependent effect
Activity [19]: Dose-dependent effect
Activity [20]: Active
Activity [21]: 13.4%
IC50 [2]: 3.34 µM
Activity [22]: Dose-dependent effect
Activity [23]: Active
Activity [24]: Dose-dependent effect
Activity [25]: Dose-dependent effect
Activity [26]: 8.6%
IC50 [3]: 2.89 µM
ΔTm [27]: 0.95 °C
Activity [28]: 59.58%
ΔTm [29]: 4.7 °C
Activity [30]: 0.95%
Activity [31]: Dose-dependent effect
IC50 [4]: 1.92 µM
Activity [32]: Active
IC50 [5]: 3.25 µM
Activity [33]: 21.45%
Activity [34]: 16.65%
Activity [35]: 5.7%
IC50 [6]: 3.02 µM
Activity [36]: Active
inhibition [37]: Dose-dependent effect
ΔTm [38]: 1.64 °C
IC50 [7]: 2.16 µM
Activity [39]: 78.15%
ΔTm [40]: 2.12 °C
Kd [41]: 38 µM
Activity [42]: Dose-dependent effect
inhibition [43]: Dose-dependent effect
Activity [44]: 2.35%

Further lines, results first:

IC50 [1]: 13.6 µM
Compound: CC(C)=CCC12OCC3CC(C=C4C(=O)c5c(cccc5OS(C)(=O)=O)OC431)C2=O (stereo not given)

IC50 [1]: 8.52 µM
Compound: C=CCC12OCC3CC(C=C4C(=O)c5c(O)cccc5OC431)C2=O (stereo not given)

IC50 [1]: 6.2 µM
Compound: C/C(=C\CC12OCC3CC(C=C4C(=O)c5c(O)cccc5OC431)C2=O)CCl (stereo not given)

IC50 [1]: 15.5 µM
Compound: CC(C)=CCC12OC(C)(C)C3CC(C=C4C(=O)c5c(O)cccc5OC431)C2=O (stereo not given)
